Laboratory results reported in patent publication US10098352B2, “Honeybee repellents and uses thereof” (Inscent, Inc., priority 2011, dated 2018).

Columns and labels:
[1] = cited from earlier work
[2] = system: Apis mellifera Carniolan foraging worker honeybees; assay: Choice test in free-flight box apparatus; format: in vivo; conditions: amount 0.5%; percent food-weight change vs corresponding dishes in preceding test; negative = increase in food consumption
Description: To determine whether living honeybees will choice to move towards a source of a candidate compound, these compounds were assayed using a choice test in a free-flight box apparatus.
All tests were done in a free-flight box apparatus. The apparatus comprises a 244 cm long×46 cm deep×30 cm high clear plastic box including two equally-sized independent testing chambers, each with 10 cm diameter air inlets that admit filtered room air, separated by a smaller central chamber with a screened air outlet to each testing chamber. Air can be pulled through the sealed box via a 10 cm diameter duct from the air outlet using an AQE Fume Fighter 500 fume extractor (BPA Air Quality Solutions, LLC, Charleston, S.C.), which removes the test odors using activated charcoal and HEPA filters. The box is housed in an environmentally controlled room with overhead illumination timed to correspond to the current ambient light cycle including 2 additional sets of lights timed to approximate crepuscular lighting conditions. The bottom of the apparatus was lined with clean absorbent paper marked with a 4×9 grid pattern, forming 12 cm×12 cm squares with marked coordinates.
Apis mellifera Carniolan foraging worker honeybees were obtained from a local apiary (typically 60 bees per shipment). Thirty honeybees were put into each testing chamber and were allowed to acclimate for 24 hours with food and water freely available.
At the beginning of each test day all food was removed from the test chamber, but water was continually available throughout all tests. For each test, approximately 0.3 g of organic, raw orange blossom honey was added to each clean small plastic weigh boat (Cole-Palmer). The honey boats were placed in small plastic culture dishes, which were distributed in the marked squares in the chambers. The positions of the dishes on the grid for a set of trials was chosen to avoid the bees' preferred resting area so that they had to find the food actively, but the same dish positions were maintained for a given set of trials. […] The honey in each boat was weighed on an analytical balance before and after the test, with the screened sample as a control for evaporative loss. The fume extractor was left off during the experimental trails, and was turned on to clear the air after the test dishes were covered and removed from the chamber at the end of each trial.
Based on the observation that bees tend to return to dishes in the same position where they have fed before, each set of trials with each group of bees began with “Pattern Identification” tests to see which dishes lose the most weight, reflecting the most feeding. Once bees were consuming an acceptable amount in 10-15 min, typically in 1-2 trials, we began a set of test compound trials. The test compound was pipetted onto pieces of filter paper placed on the dish bottom below the boat containing a fresh, weighed honey sample so that the test compound was inaccessible to the bees. We used 2 μL of a candidate compound at a concentration of 0.05-0.5%, in Triton X-100 or paraffin oil, on each of four pieces of filter paper per dish. The test-solution dishes were set at the same positions as the one or two dishes favored in the preceding Pattern Identification trial. To eliminate interference from the solvent, the other dishes without the test substance contained the same volume of the appropriate solvent on filter papers as the test solution dishes. The bees were allowed to feed for 10-15 minutes. Bee movements were recorded by a small, wide-angle digital video camcorder (HD Hero 960; GoPro, Halfmoon Bay, Calif.) placed on a tripod in front of the test chamber. The bees were given a brief rest while the honey was weighed and a second test was begun with fresh dishes, except that the test compound-containing dish or dishes were placed at whichever positions were most visited in the preceding test. […] The bees were then rested for 1-3 hours and a subsequent set of trials begun with another Pattern Identification. […]

[3] = system: Apis mellifera Carniolan foraging worker honeybees; assay: Proboscis extension response (PER) assay in bees conditioned to 2-heptanone; format: in vivo; conditions: for 2-heptanone positive bees testing positive to compound: final compound concentration 0.5% (TRITON X-100/water), 4 s exposure, only bees PER-positive to 2-heptanone and negative to controls counted
Description: To determine whether a living honeybee can recognize a candidate compound, these compounds were tested using a proboscis extension response (PER) assay using classical conditioning approaches. Proboscis extension response conditioning is a case of appetitive learning, in which bees learn to associate odor stimuli with sucrose reward in the laboratory. In this case, bees were conditioned to produce a PER to 2-heptanone as the conditioned stimulus and a sugar reward as the unconditioned stimulus. These trained bees were then exposed to an odor pulse of a candidate compound to test whether a candidate compound would also produce a PER. If the candidate compound “mimics” 2-heptanone then the honeybee will extend its proboscis.
For conditioning procedures, Apis mellifera Carniolan foraging worker honeybees were obtained from a local apiary (typically 60 bees per shipment). The honeybees were held overnight in insect cages with food and water freely available, in an environmentally controlled room on a light cycle similar to the ambient cycle at the time of the assay.
For conditioning procedures, all tests were done in an odorant delivery apparatus set inside a fume hood. The apparatus comprised a set of open-ended, horizontal, 3 cm diameter by 10 cm long plastic tubes. Each tube was designed where a honeybee could be positioned at the distal end of a tube, with the opening at the other end of the tube located proximal to an inlet of the fume hood. To deliver an odorant, room air was pumped by a diaphragm pump through a particle filter via 0.25 inch plastic tubing at approximately 0.7 m/sec. The air flow passes into the headspace above an odorant (0.5% [v/v]2-heptanone dissolved in odorless light paraffin oil) contained in a 100 mL bottle. The headspace air then passes through another plastic tube to a manifold of 4-way valves, each of which was attached near the proximal end of a plastic tube containing a bee. Each bee was exposed separately for a desired time period to the odorant by opening and closing the appropriate valve. When each valve was closed, the odor was flushed away immediately by the continuous fume hood air stream.
To train a honeybee to respond to a conditioned and unconditioned stimuli, bees were placed, without anesthesia, in individual 1.5 mL micro-centrifuge holding tubes and held overnight without access to food or water. The holding tubes containing the starved bees were placed in racks in groups of eight. One rack at a time was placed behind the odorant delivery apparatus so that each bee's head is centered at the distal end of a horizontal plastic tube. Each bee was exposed to the 2-heptanone odorant alone for four seconds, and then while being fed an 80% sucrose solution for and additional three seconds. The sucrose solution was delivered on a piece of saturated filter paper held in forceps. […] Positive and negative responses were recorded. A positive PER was scored when a bee extended its proboscis before the sucrose appeared. In a typical trial, 48 individual bees were subjected to conditioning. Six rounds of training were done before testing began, and typically a majority of the bees were successfully conditioned by the second or third round of training.
After conditioning, honeybees were tested with the candidate compounds the same day or on the following day or, most commonly, both. When held overnight, bees were fed with sucrose and kept in their holding tubes. When tested the day after training, bees were given one or more rounds of conditioning with 2-heptatone to refresh their memories. Candidate compounds stocks were made at 5% (w/v) in polyoxyethylene octyl phenyl ether (TRITON® X-100), a non-ionic detergent/surfactant, and stored at 4° C. This detergent is similar to substances used as carriers for a variety of commercial pest-control agents, can act as a solvent for both hydrophilic and hydrophobic substances, and is itself nearly odorless. […]

[4] = system: OBP2; assay: Fluorescent-quench ligand-protein-binding assay (OBP2 binding screen); set-up: species or system Apis mellifera
Source text: To identify a honeybee repellent disclosed herein, candidate compounds were screened based upon the fact that 2-heptanone is an established repellent of bees. 2-heptanone is thought to mediate its behavioral response through binding to a specific odorant-binding protein called OBP2. Therefore compounds that bind OBP2 have the potential to act as odor “mimics” of 2-heptanone. By utilizing a fluorescent-quench, ligand-protein-binding assay, 30,000 compounds from the DIVERSET® library (ChemBridge Corp., San Diego, Calif.), a chemical library, were screened and over 150 candidate compounds were isolated that bind OBP2 (Table 1). Such assays are generally known in the art. See, e.g., Briand, et al., Ligand-Binding Properties and Structural Characterization of a Novel Rat Odorant-Binding Protein Variant, Eur. J. Biochem. 267(10): 3079-3089 (2000); Briand, et al., Ligand Binding and Physico-Chemical Properties of ASP2, A Recombinant Odorant-Binding Protein From Honeybee (Apis mellifera L.), Eur. J. Biochem. 268(3): 752-760 (2001); Briand, et al., Characterization of a Chemosensory Protein (ASP3c) from Honeybee (Apis mellifera L.) as a Brood Pheromone Carrier, Eur. J. Biochem. 269(18): 4586-4596 (2002), each of which is hereby incorporated by reference in its entirety.

| Structure (SMILES) | solubility in alcohol or ether ([1]; alcohol or ether) | solubility in water ([1]; water) | Repellence Score [2] | 2-heptanone positive bees testing positive to compound [3] | OBP2 binding characteristic of compound [4] | % Positive in PER ([3]; PER score as repeated in Table 3) |
| --- | --- | --- | --- | --- | --- | --- |
| CCCCCC(C)=O [2-heptanone] | soluble | very slightly soluble | 54.6% |  |  |  |
| O=C1OC(c2ccccc2)=NC1=Cc1cccs1 [compound 9, 2-phenyl-4-(2-thienylmethylene)-1,3-oxazol-5(4H)-one] |  |  | 43.3% | 9.7% | Moderate (Moderate, indicates that 50% or less of the compound bound to OBP2.) |  |
| O=C(Nc1ccccc1C(=O)Nc1ccccc1Cl)c1ccccc1 [compound 10, 2-(benzoylamino)-N-(2-chlorophenyl)benzamide] |  |  | 45.6% | 4.8% | Moderate (Moderate, indicates that 50% or less of the compound bound to OBP2.) |  |
| O=C(NNC1=C(C(=O)C(F)(F)F)CCC1)c1ccc(Br)cc1 [compound 36] |  |  | 56.3% | 24.3% | Moderate (Moderate, indicates that 50% or less of the compound bound to OBP2.) |  |
| CC(=O)c1cc(Cl)ccc1OC(=O)c1ccc(C)cc1 [compound 40, 2-acetyl-4-chlorophenyl 4-methylbenzoate] |  |  | 54.6% | 34.3% | Moderate (Moderate, indicates that 50% or less of the compound bound to OBP2.) | 30.5% |
